# How the values were obtained:
# [1] = cited from earlier work
# Pseudomonas aeruginosa = experiment: chlorine dioxide (ClO2) and TTPC versus Pseudomonas aeruginosa, log reduction; format: cell-based; settings: 10^5 ml
# Experimental: A test with chlorine dioxide (ClO2) and TTPC versus Pseudomonas aeruginosa was performed at 10^5 ml with ClO2 of 10 ppm. This alone gave a 1 log reduction in 30 min exposure. TTPC alone at 50 ppm gave a 2 log reduction. The combination of ClO2 and TTPC of 5ppm and 10 ppm gave a 5 log reduction in 30 min.
# [2] = effective kill time based upon log reduction, TTPC versus dual chain quaternary ammonium; format: cell-based; settings: TTPC alone
# Experimental: (§1) When TTPC was added to the core glutaraldehyde or OPA as a substitute for dual chain quaternary ammonium the effective kill time was twice as fast (2×) based upon log reduction. Similarly, the TTPC reduced the effective kill time of acid-producing bacteria (APB) by almost 50%. Although the kill speed of TTPC alone was 20% slower than the glut/quat formula of copending U.S. patent application Ser. No. 12/584,648, when incorporated with glutaraldehyde as a substitute for dual chain quaternary ammonium the kill time […] to four times faster, evidencing the synergism of the present combination.
# [3] = tested on: acid-producing bacteria (APB); experiment: effective kill time of acid-producing bacteria; format: cell-based
# Experimental: as §1
# [4] = effectiveness based upon a 5 log reduction in oil frac water; format: cell-based
# Source text: (§2) As such there is actually a slight increase in planktonic microbes which are more susceptible to biocide/TTPC effects. Individual biocides affect the physiology of the cell quite differently. […] This is an example of enhanced […]. The importance of the environmental parameter cannot be underestimated based upon the foregoing results. TTPC has a similar margin of exposure as the quats used for killing of aerobic organisms. […] The minimum inhibitory concentration (MIC) for the TTPC usage is 50-500 ppm. Therefore it is safe regarding corrosiveness, an important facet in instrument sterilization. […] The faster cidal action is due basically to the chemistry difference between amine quats and phosphonium salts. The ammonium quats have longer alkyl chains. Instead of amine the difference is a phosphonium ion but also importantly is the alkyl chain length. It has been determined that there is an optimal length for anti-bacterial effectiveness. It was dependent upon chain length and attachment moieties. […] Usually the longer chain was better but not in these cases. […] TTPC did. There are great differences between Gram + and Gram − bacteria in their cell walls. […] The Gram − wall is complicated. It has in addition to the wall of G+ an outer membrane of lipopolysaccharide and phospholipids that protects the cell.
# [5] = minimum inhibitory concentration (MIC); format: cell-based
# Source text: as §2
# [6] = tested on: sulfur reducing bacteria (SRB); experiment: efficacy on sulfur reducing bacteria; format: cell-based
# Source text: as §2
# [7] = tested on: MRSA, B. subtillis, E coli, pseudomonas aeruginosa, candida; experiment: kill of test microorganisms in allotted time of 30 minutes; format: cell-based
# Source text: as §2
smiles,measurement,setting,value
"O=Cc1ccccc1C=O [OPA, orthophthalaldehyde]",disinfection time,"[1]; high level disinfectant, 20-22 degrees C.",twelve
"O=CCCCC=O [glutaraldehyde, Glutaraldehyde]",residence time for disinfection,[1]; controlled temperature from 20 C to 25-30 C,45 to 90 min
"CCCCCCCCCCCCCC[P+](CCCC)(CCCC)CCCC.[Cl-] [TTPC, tributyl tetradecyl phosphonium chloride]",log reduction,Pseudomonas aeruginosa; TTPC alone at 50 ppm,2 log reduction
same,kill speed slower than the glut/quat formula,[2],20%
same,reduction of effective kill time,[3],~50%
same,effectiveness relative to original glut/quat formula,[4],2 ×
same,minimum inhibitory concentration (MIC),[5],50-500 ppm
same,efficacy on sulfur reducing bacteria (SRB),[6],almost equally effective
same,kill of all the test bacteria in the allotted time,[7],did
"[O][Cl+][O-] [ClO2, chlorine dioxide]",log reduction,"Pseudomonas aeruginosa; ClO2 of 10 ppm alone, 30 min exposure",1 log reduction

# — patent US20130251822A1, “BIOCIDAL ALDEHYDE COMPOSITION” (priority 2011, published 2013)
